Experimental findings from ChEMBL document CHEMBL1154815, “3D QSAR studies on ketoamides of human cathepsin K inhibitors based on two different alignment methods” (Eur J Med Chem, 2010) are described below.

Molecules are shown by their SMILES.

What is called IC50 is the concentration that gives 50% inhibition. A low value points to higher potency. For orientation: pIC50 means the negative decadic logarithm of the IC50, by convention in mol/L.

The target of this test is T1, Cathepsin K (Homo sapiens, UniProt P43235).
T1 sequence (P43235 whole entry): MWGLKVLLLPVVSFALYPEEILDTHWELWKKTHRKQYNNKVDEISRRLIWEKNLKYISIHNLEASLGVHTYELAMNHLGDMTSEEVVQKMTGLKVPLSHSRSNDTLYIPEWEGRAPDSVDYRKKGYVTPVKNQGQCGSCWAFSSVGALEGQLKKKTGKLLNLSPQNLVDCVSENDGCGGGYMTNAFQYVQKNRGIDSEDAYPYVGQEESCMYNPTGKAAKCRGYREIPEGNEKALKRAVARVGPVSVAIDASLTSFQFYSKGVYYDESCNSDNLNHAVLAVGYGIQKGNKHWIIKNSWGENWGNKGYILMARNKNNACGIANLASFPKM
As to the kind of experiment: Inhibition of human cathepsin K.
Compound `CCCC[C@H](NC(=O)O[C@@H]1CN(C(=O)CCCc2ccccc2)CC1(C)C)C(=O)C(=O)N[C@H](C)c1ccccc1` showed an IC50 of 26.9 nM.
Still for that read-out and setting: as for `CCCC[C@H](NC(=O)O[C@@H]1CN(C(=O)NCc2ccccc2)CC1(C)C)C(=O)C(=O)N[C@H](C)c1ccccc1`, the figure is 3.8 nM.
Turning to `CCCC[C@H](NC(=O)O[C@@H]1CN(C(=O)c2ccno2)CC1(C)C)C(=O)C(=O)N[C@H](C)c1ccccc1`, half-maximal inhibition (IC50) was put at 8.91 nM.
On the same count and under the same terms, as for `CCCC[C@H](NC(=O)O[C@@H]1CN(C(=O)OCc2ccc(-c3ccccc3)cc2)CC1(C)C)C(=O)C(=O)N[C@H](C)c1ccccc1`, the figure is 2.09 nM; as for `CCCC[C@H](NC(=O)O[C@@H]1CN(C(=O)Oc2ccc3ccccc3c2)CC1(C)C)C(=O)C(=O)N[C@H](C)c1ccccc1`, 57.5 nM; as for `CCCC[C@H](NC(=O)O[C@@H]1CN(C(=O)c2cc3ccccc3s2)CC1(C)C)C(=O)C(=O)N[C@H](C)c1ccccc1`, 2.82 nM.
Same read-out and setting: next, `CCCC[C@H](NC(=O)O[C@@H]1CN(C(=O)NCCc2ccccc2)CC1(C)C)C(=O)C(=O)N[C@H](C)c1ccccc1`: 6.61 nM; `CCCC[C@H](NC(=O)O[C@@H]1CN(C(=O)Cc2ccccc2)CC1(C)C)C(=O)C(=O)N[C@H](C)c1ccccc1`: 3.02 nM.
For `CCCC[C@H](NC(=O)O[C@@H]1CN(C(=O)c2ccc3ccccc3c2)CC1(C)C)C(=O)C(=O)N[C@H](C)c1ccccc1`, the midpoint of inhibition, the IC50, lay at 1.58 nM.
Same read-out and setting: next, `CCCC[C@H](NC(=O)O[C@@H]1CN(C(=O)c2ccc(C(F)(F)F)cc2)CC1(C)C)C(=O)C(=O)Nc1cc[nH]n1`: 0.417 nM; `CCCC[C@H](NC(=O)O[C@@H]1CN(C(=O)c2ccc3cc[nH]c3c2)CC1(C)C)C(=O)C(=O)N[C@H](C)c1ccccc1`: 1.7 nM; `CCCC[C@H](NC(=O)O[C@@H]1CN(S(=O)(=O)Cc2ccccc2)CC1(C)C)C(=O)C(=O)N[C@H](C)c1ccccc1`: 17 nM.
For `CCCC[C@H](NC(=O)O[C@@H](Cc1nnc(-c2ccccc2)o1)C(C)C)C(=O)C(=O)N[C@H](C)c1ccccc1`, half-maximal inhibition (IC50) was put at 0.832 nM. This IC50 is about 20-fold lower than that of the compound before.
In turn, `CCCC[C@H](NC(=O)O[C@@H]1CN(C(=O)c2ccccc2)CC1(C)C)C(=O)C(=O)N[C@H](C)c1ccccc1` gave an IC50 of 64.6 nM.
`CCCC[C@H](NC(=O)O[C@@H]1CN(C(=O)c2cccnc2)CC1(C)C)C(=O)C(=O)N[C@H](C)c1ccccc1` gave an IC50 of 14.1 nM. This IC50 is about 4.6-fold lower than that of the compound before.
In the case of `CCCC[C@H](NC(=O)O[C@@H]1CN(C(=O)c2ccc(-c3ccccc3)cc2)CC1(C)C)C(=O)C(=O)N[C@H](C)c1ccccc1`, half-maximal inhibition (IC50) required 6.92 nM.
Take `CCCC[C@H](NC(=O)O[C@H](Cc1nnc(-c2ccc(F)cc2)o1)C(C)(C)C)C(=O)C(=O)N[C@H]1CCCNC1=O`: the IC50 is 0.646 nM.
`CCCC[C@H](NC(=O)O[C@H](Cn1cc(-c2ccc(C(F)(F)F)cc2)cn1)C(C)(C)C)C(=O)C(=O)Nc1ccn[nH]1` had an IC50 of 0.0257 nM.
Take `CCCC[C@H](NC(=O)O[C@H](Cn1cnc(-c2ccc(C(F)(F)F)cc2)c1)C(C)(C)C)C(=O)C(=O)Nc1ccn[nH]1`: the pIC50 is 10.6.
In turn, `CCCC[C@H](NC(=O)O[C@@H]1CN(S(=O)(=O)c2ccccc2)CC1(C)C)C(=O)C(=O)N[C@H](C)c1ccccc1` gave an IC50 of 8.32 nM.
The same measure, in the same setting: next, `CCCC[C@H](NC(=O)O[C@@H]1CN(C(=O)Oc2ccccc2)CC1(C)C)C(=O)C(=O)N[C@H](C)c1ccccc1`: 28.8 nM; `CCCC[C@H](NC(=O)O[C@@H]1CN(C(=O)c2c(C)noc2C)CC1(C)C)C(=O)C(=O)N[C@H](C)c1ccccc1`: 15.1 nM.
The compound `CCCC[C@H](NC(=O)O[C@@H]1CN(C(=O)Nc2ccccc2)CC1(C)C)C(=O)C(=O)N[C@H](C)c1ccccc1` showed an IC50 of 4.27 nM.
Still for that read-out and setting: next, `CCCC[C@H](NC(=O)O[C@@H]1CN(C(=O)OCCc2ccccc2)CC1(C)C)C(=O)C(=O)N[C@H](C)c1ccccc1`: 32.4 nM.
In the case of `CCCC[C@H](NC(=O)O[C@@H]1CN(C(=O)Oc2ccc(-c3ccccc3)cc2)CC1(C)C)C(=O)C(=O)N[C@H](C)c1ccccc1`, the IC50 was 5.01 nM. This IC50 is about 6.5-fold lower than that of the compound before.
`CCCC[C@H](NC(=O)O[C@@H]1CN(Cc2ccccc2)CC1(C)C)C(=O)C(=O)N[C@H](C)c1ccccc1` had an IC50 of 20.9 nM.
